Data as given in patent publication US20260327204A1, “DEGRADERS OF CYCLIN-DEPENDENT KINASE 12/13, COMPOSITIONS, AND USES THEREOF” (ZHEJIANG UNIVERSITY, priority 2023, published 2026).

Assays:
CDK13 = CDK13 (Homo sapiens, UniProt Q14004); experiment: Western blot degradation of CDK13 (Example 3); format: cell-based; design: degradation of CDK12/13 protein in leukemia cells KASUMI-1, MV4-11, and Jurkat; endogenous in cells; conditions: DC50 classes, cell line not given; for DC50: read-out: CDK13 degradation Activity
CDK12 = CDK12 (Homo sapiens, UniProt Q9NYV4); experiment: Western blot degradation of CDK12 (Example 3); format: cell-based; design: degradation of CDK12/13 protein in leukemia cells KASUMI-1, MV4-11, and Jurkat; endogenous in cells; conditions: DC50 classes; cell line not given; read-out: CDK12 degradation Activity
Chain of CDK12 (Q9NYV4 whole entry): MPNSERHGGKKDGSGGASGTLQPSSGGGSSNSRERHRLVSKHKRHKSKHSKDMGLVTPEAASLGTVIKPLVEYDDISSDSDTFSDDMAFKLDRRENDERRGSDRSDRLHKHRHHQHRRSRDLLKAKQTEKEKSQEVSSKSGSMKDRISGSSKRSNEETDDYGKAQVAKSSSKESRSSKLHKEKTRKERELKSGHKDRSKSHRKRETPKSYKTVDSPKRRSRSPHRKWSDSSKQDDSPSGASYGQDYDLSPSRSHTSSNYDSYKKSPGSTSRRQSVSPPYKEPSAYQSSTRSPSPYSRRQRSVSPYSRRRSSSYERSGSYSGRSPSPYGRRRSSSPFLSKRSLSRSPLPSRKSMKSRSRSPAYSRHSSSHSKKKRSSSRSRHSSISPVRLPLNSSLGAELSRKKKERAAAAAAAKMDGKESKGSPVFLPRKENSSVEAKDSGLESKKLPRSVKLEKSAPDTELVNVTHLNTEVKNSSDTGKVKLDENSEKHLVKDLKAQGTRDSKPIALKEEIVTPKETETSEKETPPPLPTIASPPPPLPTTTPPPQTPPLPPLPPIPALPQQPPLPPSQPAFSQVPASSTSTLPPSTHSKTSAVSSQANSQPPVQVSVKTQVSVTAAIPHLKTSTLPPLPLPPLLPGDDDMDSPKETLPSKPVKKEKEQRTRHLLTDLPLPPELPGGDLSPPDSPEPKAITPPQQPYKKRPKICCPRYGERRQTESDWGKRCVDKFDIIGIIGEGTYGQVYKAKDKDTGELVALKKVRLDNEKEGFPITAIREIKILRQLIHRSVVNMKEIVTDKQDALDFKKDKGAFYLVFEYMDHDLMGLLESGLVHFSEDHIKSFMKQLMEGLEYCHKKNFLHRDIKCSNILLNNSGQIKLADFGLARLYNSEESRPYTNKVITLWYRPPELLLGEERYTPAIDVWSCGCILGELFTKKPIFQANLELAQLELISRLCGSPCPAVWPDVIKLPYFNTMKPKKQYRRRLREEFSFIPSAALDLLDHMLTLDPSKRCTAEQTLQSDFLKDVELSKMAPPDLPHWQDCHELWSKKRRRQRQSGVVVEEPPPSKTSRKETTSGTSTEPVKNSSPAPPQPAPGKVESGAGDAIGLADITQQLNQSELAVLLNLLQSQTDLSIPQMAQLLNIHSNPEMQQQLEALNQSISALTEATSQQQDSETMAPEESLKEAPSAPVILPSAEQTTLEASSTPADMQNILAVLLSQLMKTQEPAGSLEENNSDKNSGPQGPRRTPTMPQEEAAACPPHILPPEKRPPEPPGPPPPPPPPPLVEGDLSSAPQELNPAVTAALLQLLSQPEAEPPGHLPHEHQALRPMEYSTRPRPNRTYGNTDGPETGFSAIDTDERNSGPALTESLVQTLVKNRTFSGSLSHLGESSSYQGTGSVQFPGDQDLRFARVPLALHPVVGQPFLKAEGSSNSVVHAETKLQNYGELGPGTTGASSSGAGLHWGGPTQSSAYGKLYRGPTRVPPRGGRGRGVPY
Chain of CDK12 (O75909 whole entry partner): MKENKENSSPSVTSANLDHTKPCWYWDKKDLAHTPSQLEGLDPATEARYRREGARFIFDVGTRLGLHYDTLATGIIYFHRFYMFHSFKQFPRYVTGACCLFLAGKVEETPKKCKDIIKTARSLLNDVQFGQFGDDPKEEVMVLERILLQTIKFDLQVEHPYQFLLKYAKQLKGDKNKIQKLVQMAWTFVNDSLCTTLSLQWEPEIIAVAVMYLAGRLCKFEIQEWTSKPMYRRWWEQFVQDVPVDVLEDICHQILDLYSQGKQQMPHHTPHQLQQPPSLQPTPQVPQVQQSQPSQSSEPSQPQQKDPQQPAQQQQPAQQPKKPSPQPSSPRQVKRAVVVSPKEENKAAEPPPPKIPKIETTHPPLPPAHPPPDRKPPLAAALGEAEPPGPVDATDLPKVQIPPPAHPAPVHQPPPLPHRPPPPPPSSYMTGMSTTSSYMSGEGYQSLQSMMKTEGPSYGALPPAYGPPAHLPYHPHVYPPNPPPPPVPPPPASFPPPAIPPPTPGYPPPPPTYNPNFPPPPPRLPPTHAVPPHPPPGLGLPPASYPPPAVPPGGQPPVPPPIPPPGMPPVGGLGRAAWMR

Chain of CDK13 (Q14004 whole entry): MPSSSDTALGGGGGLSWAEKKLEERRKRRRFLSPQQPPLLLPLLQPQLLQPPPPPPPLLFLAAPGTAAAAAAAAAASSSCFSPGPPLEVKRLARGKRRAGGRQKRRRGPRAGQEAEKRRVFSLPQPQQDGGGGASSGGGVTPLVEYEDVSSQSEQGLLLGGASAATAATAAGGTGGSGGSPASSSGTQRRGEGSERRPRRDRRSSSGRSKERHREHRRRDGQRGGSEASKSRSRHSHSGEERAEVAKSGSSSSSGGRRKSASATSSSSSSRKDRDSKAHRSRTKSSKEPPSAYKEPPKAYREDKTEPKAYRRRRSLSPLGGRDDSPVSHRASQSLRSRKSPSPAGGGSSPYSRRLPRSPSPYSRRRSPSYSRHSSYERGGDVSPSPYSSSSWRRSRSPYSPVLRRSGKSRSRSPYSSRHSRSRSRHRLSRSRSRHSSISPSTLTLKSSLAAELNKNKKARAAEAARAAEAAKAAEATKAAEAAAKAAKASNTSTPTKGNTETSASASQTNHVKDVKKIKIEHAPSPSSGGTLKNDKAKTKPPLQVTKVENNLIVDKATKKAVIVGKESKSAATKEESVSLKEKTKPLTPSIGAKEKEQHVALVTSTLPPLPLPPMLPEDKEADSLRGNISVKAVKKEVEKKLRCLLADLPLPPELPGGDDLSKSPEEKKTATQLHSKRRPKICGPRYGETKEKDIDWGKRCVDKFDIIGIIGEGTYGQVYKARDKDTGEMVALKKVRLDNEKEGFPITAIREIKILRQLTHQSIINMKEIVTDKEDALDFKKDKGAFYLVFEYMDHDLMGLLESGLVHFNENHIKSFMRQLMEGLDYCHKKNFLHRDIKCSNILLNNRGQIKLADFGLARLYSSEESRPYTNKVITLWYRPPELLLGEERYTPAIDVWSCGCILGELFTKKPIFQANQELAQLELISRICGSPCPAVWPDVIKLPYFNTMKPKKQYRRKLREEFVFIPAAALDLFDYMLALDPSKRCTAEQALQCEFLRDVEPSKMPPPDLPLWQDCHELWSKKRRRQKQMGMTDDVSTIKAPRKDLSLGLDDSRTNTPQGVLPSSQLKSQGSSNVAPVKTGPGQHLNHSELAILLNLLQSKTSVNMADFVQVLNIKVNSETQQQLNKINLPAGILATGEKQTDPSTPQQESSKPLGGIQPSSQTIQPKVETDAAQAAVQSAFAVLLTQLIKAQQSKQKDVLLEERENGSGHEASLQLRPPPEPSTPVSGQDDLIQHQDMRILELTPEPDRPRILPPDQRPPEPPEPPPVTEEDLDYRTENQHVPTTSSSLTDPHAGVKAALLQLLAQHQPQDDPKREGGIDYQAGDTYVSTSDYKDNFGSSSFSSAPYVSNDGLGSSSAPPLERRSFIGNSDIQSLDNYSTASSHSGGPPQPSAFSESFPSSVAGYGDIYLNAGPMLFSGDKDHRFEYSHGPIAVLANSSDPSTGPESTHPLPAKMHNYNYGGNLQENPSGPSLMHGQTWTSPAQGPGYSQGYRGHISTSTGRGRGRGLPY
Chain of CDK13 (O75909 whole entry partner): as the sequence (O75909 whole entry partner) above

| DC50 (CDK13) | DC50 (CDK12) | CDK13 degradation Activity (CDK13) | Compound |
| --- | --- | --- | --- |
| 1000 to 3000 nM | 500 to 1000 nM |  | CC(=O)N(c1ccc(-c2ccc(OC3CCN(CC(=O)N[C@H](C(=O)N4C[C@H](O)C[C@H]4C(=O)N[C@@H](C)c4ccc(-c5scnc5C)cc4)C(C)(C)C)CC3)nc2)cc1)[C@H]1CC[C@H](Nc2ncc3ccccc3n2)CC1 [Formula 135, (2S,4R)-1-((S)-3,3-dimethyl-2-(2-(4-((5-(4-(N-((1R,4R)-4-(quinazolin-2-ylamino)cyclohexyl)acetamido)phenyl)pyridin-2-yl)oxy)piperidin-1-yl)acetamido)butanoyl)-4-hydroxy-N—((S)-1-(4-(4-methylthiazol-5-yl)phenyl)ethyl)pyrrolidine-2-carboxamide] |
| 3000 to 10000 nM | 3000 to 10000 nM |  | CC(=O)N(c1ccc(N2CCN(c3ccc4c(c3)C(=O)N(C3CCC(=O)NC3=O)C4=O)CC2)cc1)[C@H]1CC[C@H](Nc2ncc3ccccc3n2)CC1 (stereo partly drawn) [Formula 104, N-(4-(4-(2-(2,6-dioxopiperidin-3-yl)-1,3-dioxoisoindolin-5-yl)piperazin-1-yl)phenyl)-N-((1R,4R)-4-(quinazolin-2-ylamino)cyclohexyl)acetamide] |
| 1000 to 3000 nM | 1000 to 3000 nM |  | CC(=O)N(c1ccc(-c2cnc(N3CCN(c4cc(NC5CCC(=O)NC5=O)ccc4F)CC3)nc2)cc1)[C@H]1CC[C@H](Nc2ncc3ccccc3n2)CC1 (stereo partly drawn) [Formula 130, N-(4-(2-(4-(5-((2,6-dioxopiperidin-3-yl)amino)-2-fluorophenyl)piperazin-1-yl)pyrimidin-5-yl)phenyl)-N-((1R,4R)-4-(quinazolin-2-ylamino)cyclohexyl)acetamide] |
|  | 1000 to 3000 nM | − | CC(=O)N(c1ccc(-c2cnc(N3CCC(C(=O)N[C@H](C(=O)N4C[C@H](O)C[C@H]4C(=O)N[C@@H](C)c4ccc(-c5scnc5C)cc4)C(C)(C)C)CC3)nc2)cc1)[C@H]1CC[C@H](Nc2ncc3ccccc3n2)CC1 [Formula 138, N—((S)-1-((2S,4R)-4-hydroxy-2-(((S)-1-(4-(4-methylthiazol-5-yl)phenyl)ethyl)carbamoyl)pyrrolidin-1-yl)-3,3-dimethyl-1-oxobutan-2-yl)-1-(5-(4-(N-((1R,4R)-4-(quinazolin-2-ylamino)cyclohexyl)acetamido)phenyl)pyrimidin-2-yl)piperidine-4-carboxamide] |
| 500 to 1000 nM | 500 to 1000 nM |  | CC(=O)N(c1ccc(-c2cnc(OCCOCC(=O)N[C@H](C(=O)N3C[C@H](O)C[C@H]3C(=O)N[C@@H](C)c3ccc(-c4scnc4C)cc3)C(C)(C)C)nc2)cc1)[C@H]1CC[C@H](Nc2ncc3ccccc3n2)CC1 [Formula 132, (2S,4R)-1-((S)-3,3-dimethyl-2-(2-(2-((5-(4-(N-((1R,4R)-4-(quinazolin-2-ylamino)cyclohexyl)acetamido)phenyl)pyrimidin-2-yl)oxy)ethoxy)acetamido)butanoyl)-4-hydroxy-N—((S)-1-(4-(4-methylthiazol-5-yl)phenyl)ethyl)pyrrolidine-2-carboxamide] |
| 100 to 500 nM | < 100 nM |  | CC(=O)N(c1ccc(-c2cnc(N3C[C@H]4C[C@@H]3CN4CC(=O)N[C@H](C(=O)N3C[C@H](O)C[C@H]3C(=O)N[C@@H](C)c3ccc(-c4scnc4C)cc3)C(C)(C)C)nc2)cc1)[C@H]1CC[C@H](Nc2ncc3ccccc3n2)CC1 [Formula 144, (2S,4R)-1-((S)-3,3-dimethyl-2-(2-((1R,4R)-5-(5-(4-(N-((1r,4S)-4-(quinazolin-2-ylamino)cyclohexyl)acetamido)phenyl)pyrimidin-2-yl)-2,5-diazabicyclo[2.2.1]heptan-2-yl)acetamido)butanoyl)-4-hydroxy-N—((S)-1-(4-(4-methylthiazol-5-yl)phenyl)ethyl)pyrrolidine-2-carboxamide] |
| 1000 to 3000 nM | 1000 to 3000 nM |  | CC(=O)N(c1ccc(-c2cnn(CC3CN(c4ccc5c(c4)C(=O)N(C4CCC(=O)NC4=O)C5=O)C3)c2)cc1)[C@H]1CC[C@H](Nc2ncc3ccccc3n2)CC1 (stereo partly drawn) [Formula 115, N-(4-(1-((1-(2-(2,6-dioxopiperidin-3-yl)-1,3-dioxoisoindolin-5-yl)azetidin-3-yl)methyl)-1H-pyrazol-4-yl)phenyl)-N-((1R,4R)-4-(quinazolin-2-ylamino)cyclohexyl)acetamide] |
| 500 to 1000 nM | 500 to 1000 nM |  | CC(=O)N(c1ccc(-c2cnc(OC3CCN(CC(=O)N[C@H](C(=O)N4C[C@H](O)C[C@H]4C(=O)N[C@@H](C)c4ccc(-c5scnc5C)cc4)C(C)(C)C)CC3)nc2)cc1)[C@H]1CC[C@H](Nc2ncc3ccccc3n2)CC1 [Formula 136, (2S,4R)-1-((S)-3,3-dimethyl-2-(2-(4-((5-(4-(N-((1R,4R)-4-(quinazolin-2-ylamino)cyclohexyl)acetamido)phenyl)pyrimidin-2-yl)oxy)piperidin-1-yl)acetamido)butanoyl)-4-hydroxy-N—((S)-1-(4-(4-methylthiazol-5-yl)phenyl)ethyl)pyrrolidine-2-carboxamide] |
| 1000 to 3000 nM | 1000 to 3000 nM |  | CC(=O)N(c1ccc(-c2ccn(CC3CCN(c4ccc5c(c4)C(=O)N(C4CCC(=O)NC4=O)C5=O)CC3)c(=O)c2)cc1)[C@H]1CC[C@H](Nc2ncc3ccccc3n2)CC1 (stereo partly drawn) [Formula 111, N-(4-(1-((1-(2-(2,6-dioxopiperidin-3-yl)-1,3-dioxoisoindolin-5-yl)piperidin-4-yl)methyl)-2-oxo-1,2-dihydropyridin-4-yl)phenyl)-N-((1R,4R)-4-(quinazolin-2-ylamino)cyclohexyl)acetamide] |
| 500 to 1000 nM | 500 to 1000 nM |  | CC(=O)N(c1ccc(N2CCN(CC3CCN(c4ccc5c(c4)C(=O)N(C4CCC(=O)NC4=O)C5=O)CC3)CC2)cc1)[C@H]1CC[C@H](Nc2ncc3ccccc3n2)CC1 (stereo partly shown) [Formula 106] |
| 3000 to 10000 nM | 3000 to 10000 nM |  | CC(=O)N(c1ccc(N2CCC3(CC2)CCN(c2ccc4c(c2)C(=O)N(C2CCC(=O)NC2=O)C4=O)CC3)cc1)[C@H]1CC[C@H](Nc2ncc3ccccc3n2)CC1 (stereo partly drawn) [Formula 120, N-(4-(9-(2-(2,6-dioxopiperidin-3-yl)-1,3-dioxoisoindolin-5-yl)-3,9-diazaspiro[5.5]undecan-3-yl)phenyl)-N-((1R,4R)-4-(quinazolin-2-ylamino)cyclohexyl)acetamide] |
